From patent US20100197628A1, “METHODS OF TREATING PSYCHIATRIC, SUBSTANCE ABUSE, AND OTHER DISORDERS USING COMBINATIONS CONTAINING OMEGA-3 FATTY ACIDS” (priority 2003, published 2010)

Experiments:
[1] = test system: depressed subjects; assay: 17-item Hamilton Depression Rating Scale (HDRS), eight weeks of treatment; assay type: in vivo, human
Experimental: (§1) In a second study, twelve depressed subjects (mean age 40) received 500 mg of an oral formulation of CDP-choline twice daily for eight weeks.

[2] = test system: rats; assay: Forced swim test (FST) with citicoline, cytidine and choline; assay type: in vivo, rat; details: IP; for antidepressant effects in the FST: citicoline 50-500 mg/kg, cytidine 23.8-238 mg/kg, choline 13.7-136.6 mg/kg (molar equivalent amounts)
Experimental: The effects of citicoline were examined in the forced swim test (FST), a rodent model of depression as described herein. Because citicoline is rapidly converted to cytidine and choline, their effects were also examined in the FST.
Forced Swim Test (FST): One hundred-sixty seven rats were used in the FST studies, which were conducted as described previously (Carlezon et al. Biol. Psychiatry 51:882-889, 2002) with minor modifications. The FST is a two-day procedure in which rats swim under conditions in which escape is not possible. On the first day, rats are placed in clear, 65 cm tall-25 cm diameter cylinders filled to 48 cm with 25° C. water. The rats initially struggle to escape from the water, but eventually they adopt a posture of immobility in which they make only the movements necessary to keep their heads above water. After 15 min of forced swimming, the rats are removed from the water, dried with towels, and placed in a warmed enclosure for 30 min. The cylinders are emptied and cleaned between rats. When the rats are re-tested 24 hours later under identical conditions in 5 min sessions, immobility is increased. Treatment with standard antidepressant drugs within the 24 hr period between the first exposure to forced swimming and re-testing can attenuate facilitated immobility, an effect correlated with antidepressant efficacy in humans (Porsolt et al. Nature 266:730-732 1977; Detke et al. Psychopharmacology 121:66-72 1995, Carlezon et al. Biol. Psychiatry 51:882-889, 2002).

[3] = test system: brain phosphodiesters; assay: Phosphorus-31 MR spectroscopy of lipid metabolite resonances during chronic CDP-choline administration; assay type: in vivo, human; details: 18 healthy subjects, mean age 70; 500 mg oral daily for 6 weeks, weeks 6-12 half continued, half placebo; p=0.008
Experimental: (§2) To assess whether chronic CDP-choline administration leads to detectable changes in lipid metabolite resonances in phosphorus-31 MR spectra, eighteen healthy subjects (mean age: 70) were administered 500 mg of an oral formulation of CDP-choline daily for a six week period. From weeks 6 to 12, half of the subjects continued to receive CDP-choline and half received placebo in a double-blind fashion. […] CDP-choline administration, therefore, improves measures of verbal fluency and spatial memory in healthy adults and results in increased brain phospholipid synthesis in older adults, particularly during chronic administration.

[4] = test system: healthy subjects; assay: Neuropsychological testing during chronic CDP-choline administration; assay type: in vivo, human; details: across all subjects at week twelve, 500 mg oral daily
Experimental: as §2

[5] = cited from earlier work
[6] = ingestion of large amounts in preclinical studies; cited from earlier work
[7] = test system: cytosolic choline resonance in the anterior cingulate cortex; assay: Proton MR spectroscopy of cytosolic choline resonance; assay type: in vivo, human; details: associated with a successful response; 500 mg twice daily, eight weeks
Experimental: as §1

[8] = test system: rats; assay: Conditioned rewarding effects of cytidine; assay type: in vivo, rat; details: 238 mg/kg, IP
[9] = test system: rats; assay: Locomotor activity after cytidine; assay type: in vivo, rat; details: 238 mg/kg, IP (optimally effective dose)
[10] = test system: children with ADHD; assay: Computerized continuous performance task (CPT), measure of attention; assay type: in vivo, human
Experimental: A new fMRI procedure (T2 relaxometry or “T2-RT”) was developed to indirectly assess blood volume in the striatum (caudate and putamen) of boys 6-12 years of age under steady-state conditions. Six healthy control boys (10.2±1.5 yr) and eleven boys diagnosed with ADHD (9.3±1.6 yr) served as subjects in the study to examine fMRI differences between unmedicated healthy controls and ADHD children on either placebo or the highest dose of methylphenidate. […] Activity and attention were evaluated in unmedicated healthy controls using the same procedure as children with ADHD, and fMRI followed within the same time frame.
(§3) Highly accurate laboratory-based measures of activity and attention were obtained by having the children perform a computerized vigilance test while an infrared motion analysis system captured and recorded movements (see Methods). […]
Assessment of Activity and Attention. […] In brief, children sat in front of a computer and were evaluated using a simple GO/NO−GO CPT in which the subject responds to visual presentation of a target and withholds response to a non-target stimuli that appear in the center of the screen at a fixed 2 second […] interval (Greenberg et al., Psychopharmacol. Bull. 23: 279-282, 1987). […]
Statistical Analyses. Differences between groups was assessed using ANCOVA with age as a covariate. […]

[11] = test system: putamen, caudate and thalamus of children with ADHD; assay: T2 relaxometry fMRI (T2-RT), indirect measure of regional blood volume; assay type: in vivo, human; details: ongoing treatment
Text: A new fMRI procedure (T2 relaxometry or “T2-RT”) was developed to indirectly assess blood volume in the striatum (caudate and putamen) of boys 6-12 years of age under steady-state conditions. Six healthy control boys (10.2±1.5 yr) and eleven boys diagnosed with ADHD (9.3±1.6 yr) served as subjects in the study to examine fMRI differences between unmedicated healthy controls and ADHD children on either placebo or the highest dose of methylphenidate. The healthy controls were screened using structured diagnostic interview (K-SADS-E; Orvaschel, H. & Puig-Antich, J., The schedule for affective disorders and schizophrenia for school-age children-epidemiologic version (Kiddie-SADS-E), University of Pittsburgh, Pittsburgh, Pa., 1987), were free of any major psychiatric disorder, and had no more than 3 out of 9 possible symptoms of inattention or hyperactivity-impulsivity by DSM-IV criteria. Children with ADHD were included if they met criteria for ADHD on structured diagnostic interview, and had at least 6 of 9 symptoms of inattention or hyperactivity-impulsivity. Children with ADHD took part in a triple blind (parent, child, rater), randomized, placebo-controlled study of effects of methylphenidate (0, 0.5, 0.8, 1.5 mg/kg in divided dose) on activity, attention, and fMRI. Children with ADHD were treated continuously for one week with placebo or a specific dose of methylphenidate and at the end of the week were tested for drug efficacy using objective measures of attention and activity and fMRI (See Methods) within 1-3 hours of their afternoon dose. The time between dose and testing was held constant for each subject throughout the four treatment conditions. Activity and attention were evaluated in unmedicated healthy controls using the same procedure as children with ADHD, and fMRI followed within the same time frame.
T2 relaxometry, a novel fMRI procedure, was used to derive steady state blood flow measures and to test for enduring medication effects. […] T2 relaxometry, like BOLD, hinges on the paramagnetic properties of deoxyhemoglobin. […]

[12] = test system: children with ADHD; assay: Infrared motion analysis of activity during the attention test; assay type: in vivo, human
Text: A new fMRI procedure (T2 relaxometry or “T2-RT”) was developed to indirectly assess blood volume in the striatum (caudate and putamen) of boys 6-12 years of age under steady-state conditions. Six healthy control boys (10.2±1.5 yr) and eleven boys diagnosed with ADHD (9.3±1.6 yr) served as subjects in the study to examine fMRI differences between unmedicated healthy controls and ADHD children on either placebo or the highest dose of methylphenidate. The healthy controls were screened using structured diagnostic interview (K-SADS-E; Orvaschel, H. & Puig-Antich, J., The schedule for affective disorders and schizophrenia for school-age children-epidemiologic version (Kiddie-SADS-E), University of Pittsburgh, Pittsburgh, Pa., 1987), were free of any major psychiatric disorder, and had no more than 3 out of 9 possible symptoms of inattention or hyperactivity-impulsivity by DSM-IV criteria. Children with ADHD were included if they met criteria for ADHD on structured diagnostic interview, and had at least 6 of 9 symptoms of inattention or hyperactivity-impulsivity. Children with ADHD took part in a triple blind (parent, child, rater), randomized, placebo-controlled study of effects of methylphenidate (0, 0.5, 0.8, 1.5 mg/kg in divided dose) on activity, attention, and fMRI. […] Activity and attention were evaluated in unmedicated healthy controls using the same procedure as children with ADHD, and fMRI followed within the same time frame.
as §3
Assessment of Activity and Attention. […] In brief, children sat in front of a computer and were evaluated using a simple GO/NO−GO CPT in which the subject responds to visual presentation of a target and withholds response to a non-target stimuli that appear in the center of the screen at a fixed 2 second […] interval (Greenberg et al., Psychopharmacol. Bull. 23: 279-282, 1987). […] Three 5-minute test sessions were recorded during a 30-minute test period while an infrared motion analysis system (Qualisys, Glastonbury, Conn.) recorded the movement of small reflective markers attached to the head, shoulder, elbow, and back of the child. […] Results were analyzed using the concept of “micro-events.” A new micro-event begins when the marker moves 1.0 millimeters or more from its most recent resting location, and is defined by its position and duration. The spatial scaling exponent is a measure of the spatial complexity of the movement path, and is calculated from the logarithmic rate of information decay at progressively lower levels of resolution. […]

[13] = eight weeks, CDP-choline 500 mg twice daily, fluoxetine 20 mg/day
[14] = children with ADHD, methylphenidate vs placebo, P<0.05

C[N+](C)(C)CCOP(=O)(O)OP(=O)([O-])OC[C@H]1O[C@@H](n2ccc(N)nc2=O)[C@H](O)[C@@H]1O [CDP-choline, cytidine 5′-diphosphocholine]
mean 17-item HDRS score with eight weeks of treatment ([1]; CDP-choline 500 mg oral twice daily, fluoxetine open label 20 mg/day, p<0.0001): 10±7 | mean 17-item HDRS score before treatment ([1]; baseline, CDP-choline 12 subjects, fluoxetine 41 subjects): 21±3 | complete responses (subjects/total) [1, 13]: 6/12 | complete responses, share of subjects [1, 13]: 50% | antidepressant effects in the FST [2]: did not have antidepressant effects | effect in the FST at high doses ([2]; high doses of citicoline): small pro-depressant effects | brain phosphodiesters (phosphorus-31 MR) [3]: significant increase | visuospatial learning ([4]; p=0.0001): increases | verbal learning ([4]; p=0.003): increases | verbal fluency ([4]; p=0.07): increases | CDP-choline and/or its metabolites absorbed ([5]; orally administered): more than 99% | excreted in feces ([5]; orally administered): less than 1% | excretion route lung ([5]; share of dose): 12.9% | excretion route urine ([5]; share of dose): 2.4% | rest of the dose metabolized and retained in tissues ([5]; share of dose): 83.9% | toxicity symptoms [6]: common cholinergic symptoms | proton MR spectroscopic cytosolic choline resonance in the anterior cingulate cortex [7]: reduction

Nc1ccn([C@@H]2O[C@H](CO)[C@@H](O)[C@H]2O)c(=O)n1 [cytidine]
antidepressant effects in the FST [2]: significant antidepressant effects | conditioned rewarding effects [8]: did not affect locomotor activity or establish conditioned rewarding effects | locomotor activity [9]: did not affect locomotor activity

COC(=O)C(c1ccccc1)C1CCCCN1 (centres unmarked) [methylphenidate]
response variability (S.D.) of response latency ([10]; children with ADHD on methylphenidate (placebo 242 msec), P<0.005): 149 ms | performance accuracy on the CPT ([10]; children with ADHD, methylphenidate vs placebo, one week of treatment, P<0.05): enhancing | T2-RT in right caudate ([11]; P=0.08): trend-level difference | T2-RT in thalamus ([11]; P>0.7): failed to exert significant effects | T2-RT in right and left putamen ([11]; response tied to unmedicated activity state, P=0.006): significantly altered | increase in spatial complexity ([12]; 5 ADHD children not objectively hyperactive on placebo, p>0.6): < 8% | increase in spatial complexity ([12]; 6 subjects objectively hyperactive on placebo, P<0.02): 52.6% | complexity of the movement pattern [12, 14]: increasing | increase in time spent immobile [12, 14]: 126%
